Where “and” joins values, the source holds several entries; their conditions need not be identical. Equal entries are not always repeated.
Columns and labels:
[1] = test system: A549 lung tumor xenografts; assay: Orthotopic lung tumor xenograft model; assay type: in vivo, nude mice; conditions: 100 mg/kg oral gavage daily
Method: Six-week old nude mice were purchased from the National Cancer Institute and maintained in a barred animal facility. Cell injection into the mouse lung was performed as described previously. Mice were treated with vehicle [0.1 ml, 0.5% (w/v) carboxymethycellulose plus 0.5% Tween 80] by oral gavage or the compound dissolved in the vehicle (0.1 ml, 100 mg/kg) for 21 days. The lungs of the mice were then removed, fixed with formaldehyde and embedded in paraffin. Paraffin-embedded lung tissue sections (4 μm) were stained with H&E and evaluated for tumors. The tumor areas in lungs were quantified using the ImageJ software program (NIH).
We used the orthotopic lung tumor model to determine effects of the compound C9a on growth of lung cancer xenografts. A549 cells were injected into the lung of nude mouse as previously reported by us. Mice were randomized and divided into two groups: (a) control mice (n = 5): administration of the vehicle [0.5% (w/v) carboxymethycellulose plus 0.5% Tween 80] by oral gavage daily; (b) treated mice (n = 10): administration of the compound C9a in the vehicle at the dosage of 100 mg/kg by oral gavage daily. […]
Fig 9 The compound C9a inhibited growth of lung tumor xenografts in nude mice. […] Histones were isolated from tumors and analyzed by SDS-PAGE stained with Commassie blue R250 (bottom) or by Western blot with anti-symmetric dimethyl arginine antibody (SYM10) (top).

[2] = test system: PRMT5-target genes in A549 cells; assay: Real-time PCR of PRMT5-regulated genes; assay type: cell-based; conditions: 50 μM, 24 hrs
Method: We identified a set of genes whose expression was altered by silencing PRMT5 expression in lung cancer A549 cells. A549 cells were treated with C9a and EPZ015666 and expression of 6 identified PRMT5-regulated genes was analyzed. […] The future study would use genome-wide approach to determine genes whose expression is affected by PRMT5 inhibitors.
Supplementary file pone.0181601.s005.tif: S5 Fig PRMT5 inhibitors selectively affect PRMT5-target genes in lung cancer cells. RNAs were isolated from cells cultured in the presence of DMSO, EPZ015666 (Sigma-Aldrich) (50 μM), or C9a (50 μM) for 24 hrs and submitted to RT-RCR analysis of gene expression in cancer cell lines. Relative mRNA levels = mRNA in cells treated with PRMT5-inhibtor/mRNA in DMSo-treated cells. (TIF) Click here for additional data file.

[3] = test system: histone H2A arginine methylation in lung tumor xenografts; assay: Western blot of histone symmetric dimethylarginine in lung tumors; assay type: in vivo, nude mice; conditions: 100 mg/kg oral, 21 days, SYM10 antibody
Method: Histones were purified as reported previously. Briefly, cells (1–5 x 10^6) or lung tumors (10–100 mg) were lysated using a glass dounce in 1 ml of 1x Passive Lysis Buffer (Promega) and nuclear pellets were collected by centrifugation at 3,000 rpm for 5 min at 4 °C. The supernatant was discard and the pellets were washed with 1 ml of 1x Passive Lysis Buffer. Nuclear pellets were resuspended in 0.4 ml of the buffer (10 mM Trs-HCl, pH7.9, 0.2 mM EDTA, 1 mM DTT, 20% glycerol, 0.42 M KCl) and incubate for 30 min on ice, and centrifuged at 12,000 rpm for 10 min at 4 °C. The supernatant (histones extract) was transferred to a new tube and histones were precipitated by 20% trichloroacetic acid.
Protein extracts or histones (20 μg) were subjected to 10% or 15% sodium dodecyl sulfate-polyacrylamide gel electrophoresis, respectively then transferred to Immobilon-P membranes (Millipore). […] Immunoreactive proteins were detected using an enhanced chemiluminescence detection system (GE Healthcare) per the manufacturer’s instructions. Protein concentrations were determined using the Bradford protein assay reagent (Bio-Rad).
Fig 9 The compound C9a inhibited growth of lung tumor xenografts in nude mice. […] Histones were isolated from tumors and analyzed by SDS-PAGE stained with Commassie blue R250 (bottom) or by Western blot with anti-symmetric dimethyl arginine antibody (SYM10) (top). […]

[4] = single replicate, vs control, actin-normalised

Nc1cccc(Nc2ncnc3c2cnn3Cc2ccccc2)c1 [Compound C9a]
average tumor size (tumor area mean) in control mice relative to treated mice ([1]; 3 weeks): 7.2 fold
effect on growth of mice (body weight) ([1]; 21 days): retarded growth of mice
EXPRESSION FOLD CHANGE avg BTG2 ([2]; average): 1.857
EXPRESSION FOLD CHANGE avg FGFR1 ([2]; average): 0.9076
EXPRESSION FOLD CHANGE avg FOXO3 ([2]; average): 1.441
EXPRESSION FOLD CHANGE avg GLIPR1 ([2]; average): 6.032
EXPRESSION FOLD CHANGE avg PTTG1 ([2]; average): 1.0371
EXPRESSION FOLD CHANGE avg TIGAR ([2]; average): 1.502
EXPRESSION FOLD CHANGE BTG2 [2, 4]: 1.889 and 1.826 and 0.7777
EXPRESSION FOLD CHANGE FGFR1 [2, 4]: 0.9289 and 0.7185 and 1.075
EXPRESSION FOLD CHANGE FOXO3 [2, 4]: 1.695 and 1.429 and 1.452
EXPRESSION FOLD CHANGE GLIPR1 [2, 4]: 5.777 and 6.772 and 5.548
EXPRESSION FOLD CHANGE PTTG1 [2, 4]: 0.9706 and 1.104 and 1.215
EXPRESSION FOLD CHANGE TIGAR [2, 4]: 1.627 and 1.032 and 1.378
arginine methylation in histone H2A in lung tumors [3]: significantly inhibited

— article PMC5555576, “Selective small-chemical inhibitors of protein arginine methyltransferase 5 with anti-lung cancer activity” (PLoS ONE, 2017)
